Measurements published in patent US6232294A, “Neuro-function regulatory agent” (Kabushiki Kaisha Hayashibara Seibutsu Kagaku Kenkyujo, priority 1997, dated 2001).

What was measured:
[1] = Clinical test in volunteers with chronic fatigue syndrome or slight depression; type: in vivo, human; settings: experiment conducted similarly with vitamin P
Protocol: A medical technologist conducted the clinical experiment and 24 hours after the final administration asked the therapeutic effect and the side effects of the volunteers, and also asked the therapeutic effect and side effects of the volunteers on the basis of the relief of feeling of fatigue, malaise, loss of appetite, and insomnia, which were accompanied by the diseases. The therapeutic effect was evaluated based on four ranks; "very effective", "effective", "unchanged",and "worsened". The effectivity was expressed by a percentage of the number of volunteers, who answered "very effective" and "effective", to the total number of volunteers.

Acute toxicity test = settings: dose up to about 16 g per kg mouse (maximum challenged), intraperitoneal or oral, observed for a week
Protocol: An adequate amount of "TREHAOSE®" , a crystalline trehalose powder commercialized by Hayashibara Shoji, Inc., Okayama, Japan, was dissolved in physiological saline containing 5 w/w % gum arabic, and the solution was sterilized in usual manner and intraperitoneally injected to ddy-mice, 20-25 g weight, in a group of 10 mice, or orally administered to the mice by using a stomach sonde. […] In parallel similar experiments were conducted using as glycosyl vitamin P "αG HESPERIDIN PA" with a total hesperidin content of 74-78%, d.s.b., a glycosyl hesperidin power commercialized by Hayashibara Shoji, Inc., Okayama, Japan, and "αG RUTIN PS" with a total rutin content of 80-82%, d.s.b., a glycosyl rutin powder commercialized by Hayashibara Shoji, Inc., Okayama, Japan.

| Compound | Effect as compared with control (in words) [1] | Mortality (Acute toxicity test) |
| --- | --- | --- |
| vitamin P | no significant effect was found as compared with control |  |
| OC[C@H]1O[C@H](O[C@H]2O[C@H](CO)[C@@H](O)[C@H](O)[C@H]2O)[C@H](O)[C@@H](O)[C@@H]1O [TREHAOSE®, α,α-trehalose] |  | no mouse died |
